Experimental data: PMC5575254, “An allosteric ligand-binding site in the extracellular cap of K2P channels” (Nature Communications, 2017)

Experiments:
TREK-1 internalization = experiment: Confocal microscopic analysis of channel internalization (co-localization with Rab5a); format: cell-based, CHO-K1 cells; settings: 10 μM, 20 min, vs DMSO control
Procedure: In eight-well chamber (Thermo), CHO-K1 cells were co-transfected with PEGFP-N1-TREK1 and OFP-Rab5a. After 24 h, cells were treated with 10 μM TKDC for 20 min at room temperature and DMSO as control. At the end of incubation, cells were washed with PBS, fixed with 4% paraformaldehyde and washed with PBS. Images were taken at × 100 with scan zoom 1.74 using Leica SP8 and 3D reconstruction was done using Imaris software (Bitplane) and co-localization analysis was quantified using Imaris software. An automatic threshold of red and green channels was selected. The data represent images taken from 18 different areas (n = 18).

[1] = Solubility of TKDC (remark); format: physicochemical
[2] = system: cell surface TREK-1 expression; experiment: Flow cytometry analysis of TREK-1 cell membrane expression; format: cell-based, CHO-K1 cells; settings: 10 μM, 20, 40 min and 1 h incubation
Procedure: CHO-K1 cells were transfected with pFLAG-TREK1 for 24 h. After washed with phosphate-buffered saline (PBS), the cells were disassociated with a non-enzyme cell dissociation solution (Sigma). After 10 μM TKDC incubation for 20, 40 min and 1 h at room temperature, cell surface TREK-1 expression in CHO-K1 cells was analyzed by flow cytometry. Transfected cells expressing FLAG-tagged TREK-1 were incubated with monoclonal ANTI-FLAG® M2-FITC antibody (Sigma). Data were collected with a flow cytometer (FACS Calibur, BD Bioscience) and analyzed with Flow Jo.

mice [3] = experiment: Open field test; format: in vivo, Male C57BL/6 mice; settings: chronic i.p. administration 10 days
Procedure: (§1) Male C57BL/6 mice, aged 8 weeks (weighing 18–20 g) were used for acute and chronic drug administration and behavioral tests. The mice were housed four per cage under a 12-h light–dark cycle. Mice were raised under stable conditions with food and water ad libitum. All animal studies and experimental procedures were approved by the Animal Care Committees of the Shanghai Institute of Materia Medica, Chinese Academy of Sciences, and experiments were carried out in accordance with EU Directive 2010/63/EU on the protection of animals used for scientific purposes. […] The mice were removed to a sound-attenuating testing room 3–4 h before testing. The behavioral tests were carried out 30 min and 24 h after acute and chronic drugs administration, respectively.
The apparatus was made of opaque Plexiglas (50 cm × 50 cm) and placed in a room with sound proof. A camera was positioned above the apparatus to monitor the animal behaviors. The mice were randomly placed into the center of the sheet following 30 min drugs administration and their behaviors in the open field arena were recorded for 10 min using the camera. […] Locomotor activity and exploratory behavior were measured in the open field test and each animal was placed individually at the center for a 10 min session. The total distance moved and the number of rearing was measured in this experiment. […]

mice [4] = experiment: Tail suspension test; format: in vivo, Male C57BL/6 mice; settings: chronic i.p. administration 10 days; 0.5, 1, 5 mg kg-1
Procedure: as §1
Mice were secured on the shelf by using adhesive tape placed approximately 1 cm from the tip of the tail. The mice were then suspended by placing the other end of the tape on the edge of shelf at the height of 80 cm above the floor. Six-minute session was performed for each animal. A blinded experiment was conducted to record the amount of time spent immobile during the last 4 min of the testing period; the first 2 min were excluded. Because most mice are very active at the beginning of the test, and the potential effects of the treatment can be minimized during the first 2 min. […]

CS(=O)(=O)N(CC(=O)N1CCc2ccccc2C1)c1ccc(Cl)cc1 [TKDC, N-(4-cholorphenyl)-N-(2-(3,4-dihydrosioquinolin-2(1H)-yl)-2-oxoethyl)methanesulfonamide]
TREK-1 internalization (co-localization with Rab5a) (TREK-1 internalization): did not significantly increase TREK-1 internalization
solubility [1]: not very soluble
cell surface signal of TREK-1 positive cells [2]: did not obviously lose the cell surface signal
movement into the central area in the open field test (mice [3]): more likely to move into the central area
total distance traveled in the open field test (mice [3]; among groups): no obvious difference
immobility in the tail suspension test (mice [4]): dose-dependent decrease in immobility
